Bridge positions count the residues as written; N and C are the ends. Square brackets hold non-standard residues; d marks the D form. Peptide text beside a SMILES is read from it. * marks the point of attachment. hPhe(3,5-F2-4-CF3) = N[C@@H](CCc1cc(F)c(C(F)(F)F)c(F)c1)C(=O)O; hPhe(3-Cl-4-CF3) = N[C@@H](CCc1ccc(C(F)(F)F)c(Cl)c1)C(=O)O; hPhe(3-F,4-CF3) = N[C@@H](CCc1ccc(C(F)(F)F)c(F)c1)C(=O)O; NEtPhe(4-Me) = CCN[C@@H](Cc1ccc(C)cc1)C(=O)O; NMePhe(4-Cl) = CN[C@@H](Cc1ccc(Cl)cc1)C(=O)O; NMeAla(cPent) = CN[C@@H](CC1CCCC1)C(=O)O; NMeGly(cPent) = CN[C@H](C(=O)O)C1CCCC1; NMe3Pal = CN[C@@H](Cc1cccnc1)C(=O)O; NMeCha = CN[C@@H](CC1CCCCC1)C(=O)O; NMeChg = CN[C@H](C(=O)O)C1CCCCC1; NMeF = CN[C@@H](Cc1ccccc1)C(=O)O; NMeI = CC[C@H](C)[C@H](NC)C(=O)O; NMeD = CN[C@@H](CC(=O)O)C(=O)O; NMeL = CN[C@@H](CC(C)C)C(=O)O; NMeNva = CCC[C@H](NC)C(=O)O; NMeV = CN[C@H](C(=O)O)C(C)C; d(β3hA) = C[C@@H](N)CC(=O)O; Morpholide = C1CN(*)CCO1; NMeA = CN[C@@H](C)C(=O)O; Piperidide = C1CCN(*)CC1; Ac5c = NC1(C(=O)O)CCCC1; Aze = O=C(O)[C@@H]1CCN1; Aib = CC(C)(N)C(=O)O; Sar = CNCC(=O)O
Legend:
[1] = tested on: Human pancreatic cancer cell line AsPC-1 (G12D mutation Kras); assay: AsPC-1 cell growth inhibition (AsPC-1 CGI); format: cell-based; conditions: read-out: AsPC-1 cell growth inhibition, 50% growth inhibitory concentration (IC50 value); 96 hours, CellTiter-Glo, values classified in ranges
[2] = molecular target: protein-protein interaction between Kras and SOS1 (biotin-tagged human Kras loaded with GDP, His-tagged human SOS1) (Homo sapiens (Human), UniProt P01116, G12D); assay: Protein-protein interaction inhibition between Kras and SOS1 (KrasG12D-SOS PPI) using AlphaScreen; format: biochemical; conditions: AlphaScreen; biotin-tagged human Kras loaded with GDP, His-tagged human SOS1; read-out: KRAS G12D-SOS PPI IC50;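 further: kras produced in E. coli, Ni-coupled donor beads and streptavidin acceptor beads, excitation 680 nm with emission detected at 520–620 nm via singlet oxygen transfer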

Structure (SMILES) | IC50 [1] | IC50 [2]
CC[C@H](C)[C@@H]1NC(=O)[C@H](C)N(C)C(=O)C[C@@H](C(=O)N2CCCCC2)N(C)C(=O)[C@H](C(C)C)N(C)C(=O)C2(CCCC2)NC(=O)[C@@H]2CCCN2C(=O)[C@H](CCc2ccc(C(F)(F)F)c(Cl)c2)NC(=O)CN(C)C(=O)[C@H](CC2CCCCC2)N(C)C(=O)[C@@H]2CCN2C(=O)[C@H](CC2CCCC2)N(C)C1=O [Compound 1566] ([NMeA]I[NMeAla(cPent)][Aze][NMeCha][Sar][hPhe(3-Cl-4-CF3)]P[Ac5c][NMeV][NMeD]-Piperidide; lactam N-11) | > 0.5 µM | 0.02 µM
CC(C)C[C@H]1C(=O)N[C@@H](C(C)C)C(=O)N(C)CC(=O)N(C)CC(=O)N(C)[C@@H](CC2CCCCC2)C(=O)N(C)CC(=O)N[C@@H](CCc2ccc(C(F)(F)F)c(F)c2)C(=O)N(C)[C@@H](CC(C)C)C(=O)NC(C)(C)C(=O)N(C)[C@@H](CC(C)C)C(=O)N[C@H](C)CC(=O)N1C [Compound 1511] (cyclo([Aib][NMeL][d(β3hA)][NMeL]V[Sar][Sar][NMeCha][Sar][hPhe(3-F,4-CF3)][NMeL])) | > 0.5 µM | 0.19 µM
CCC[C@H]1C(=O)N[C@@H]([C@@H](C)CC)C(=O)N(C)CC(=O)N(C)CC(=O)N(C)[C@@H](CC2CCCC2)C(=O)N(C)CC(=O)N[C@@H](CCc2ccc(C(F)(F)F)c(Cl)c2)C(=O)N(C)[C@@H](Cc2cccnc2)C(=O)NC2(CCCC2)C(=O)N(C)[C@@H](C2CCCCC2)C(=O)N(C)[C@H](C(=O)N2CCOCC2)CC(=O)N1C [Compound 1937] ([NMeNva]I[Sar][Sar][NMeAla(cPent)][Sar][hPhe(3-Cl-4-CF3)][NMe3Pal][Ac5c][NMeChg][NMeD]-Morpholide; lactam N-11) | > 0.5 µM | 0.0031 µM
CC[C@H](C)[C@@H]1NC(=O)[C@H](CC(C)C)N(C)C(=O)C[C@@H](C(=O)N2CCOCC2)N(C)C(=O)[C@H]([C@@H](C)CC)N(C)C(=O)C2(CCCC2)NC(=O)[C@@H]2CCCN2C(=O)[C@H](CCc2ccc(C(F)(F)F)c(Cl)c2)NC(=O)CN(C)C(=O)[C@H](Cc2ccc(C)cc2)N(CC)C(=O)[C@@H]2CCN2C(=O)[C@H](C)N(C)C1=O [Compound 1322] ([NMeL]I[NMeA][Aze][NEtPhe(4-Me)][Sar][hPhe(3-Cl-4-CF3)]P[Ac5c][NMeI][NMeD]-Morpholide; lactam N-11) | ≤ 0.02 µM | 0.00082 µM
CC[C@H](C)[C@@H]1NC(=O)[C@H](CC(C)C)N(C)C(=O)C[C@@H](C(=O)N2CCCCC2)N(C)C(=O)[C@H](C(C)C)N(C)C(=O)[C@H](C)NC(=O)[C@@H]2CCCN2C(=O)[C@H](CCc2ccc(C(F)(F)F)c(Cl)c2)NC(=O)CN(C)C(=O)[C@H](CC2CCCCC2)N(C)C(=O)[C@@H]2CCN2C(=O)[C@H](C)N(C)C1=O [Compound 1211] ([NMeL]I[NMeA][Aze][NMeCha][Sar][hPhe(3-Cl-4-CF3)]PA[NMeV][NMeD]-Piperidide; lactam N-11) | > 0.5 µM | 0.031 µM
CC[C@H](C)[C@@H]1NC(=O)[C@H](CC(C)C)N(C)C(=O)C[C@@H](C(=O)N(C)C)N(C)C(=O)[C@H]([C@@H](C)CC)N(C)C(=O)C2(CCCC2)NC(=O)[C@@H]2CCCN2C(=O)[C@H](CCc2ccc(C(F)(F)F)c(Cl)c2)NC(=O)CN(C)C(=O)[C@H](Cc2ccc(C)cc2)N(CC)C(=O)[C@@H]2CCN2C(=O)[C@H](C)N(C)C1=O [Compound 866] ([NMeL]I[NMeA][Aze][NEtPhe(4-Me)][Sar][hPhe(3-Cl-4-CF3)]P[Ac5c][NMeI][NMeD]-NMe2; lactam N-11) | ≤ 0.02 µM | 0.0012 µM
CC[C@H](C)[C@@H]1NC(=O)[C@H](C)N(C)C(=O)C[C@@H](C)NC(=O)[C@H](C(C)C)N(C)C(=O)[C@H](Cc2ccccc2)N(C)C(=O)[C@H](CC(C)C)N(C)C(=O)[C@H](CCc2ccc(C(F)(F)F)c(F)c2)NC(=O)CN(C)C(=O)[C@H](Cc2ccc(Cl)cc2)N(C)C(=O)CN(C)C(=O)CN(C)C1=O [Compound 1105] (cyclo(I[Sar][Sar][NMePhe(4-Cl)][Sar][hPhe(3-F,4-CF3)][NMeL][NMeF][NMeV][d(β3hA)][NMeA])) | > 0.5 µM | 0.021 µM
CC[C@H](C)[C@@H]1NC(=O)[C@H](CC(C)C)N(C)C(=O)C[C@@H](C(=O)N2CCOCC2)N(C)C(=O)[C@H](C2CCCC2)N(C)C(=O)C2(CCCC2)NC(=O)[C@@H]2CCCN2C(=O)[C@H](CCc2cc(F)c(C(F)(F)F)c(F)c2)NC(=O)CN(C)C(=O)[C@H](C2CCCC2)N(C)C(=O)[C@@H]2CCN2C(=O)[C@H](C)N(C)C1=O [Compound 1336] ([NMeL]I[NMeA][Aze][NMeGly(cPent)][Sar][hPhe(3,5-F2-4-CF3)]P[Ac5c][NMeGly(cPent)][NMeD]-Morpholide; lactam N-11) | ≤ 0.02 µM | 0.00066 µM
